The values below come from US9844536B2, “3-(1H-imidazo[4,5-C]pyridin-2-yl)-1H-pyrazolo[3,4-C]pyridine and therapeutic uses thereof” (Samumed, LLC, priority 2014, dated 2017).

Test [1] deals with Wnt pathway (Sp5-Luc reporter, SW480 cells). Kind of test: Sp5-Luc reporter gene screening assay for Wnt activity in SW480 colon carcinoma cells. The format is cell-based. The note with it: Homo sapiens. The text has this:
The screening assay for Wnt activity is described as follows. Reporter cell lines can be generated by stably transducing cancer cell lines (e.g., colon cancer) or primary cells (e.g., IEC-6 intestinal cells) with a lentiviral construct that includes a Wnt-responsive promoter driving expression of the firefly luciferase gene.
SW480 colon carcinoma cells were transduced with a lentiviral vector expressing luciferase with a human Sp5 promoter consisting of a sequence of eight TCF/LEF binding sites. SW480 cells stably expressing the Sp5-Luc reporter gene and a hygromycin resistance gene were selected by treatment with 150 μg/ml of hygromycin for 7 days. These stably transduced SW480 cells were expanded in cell culture and used for all further screening activities. For Sp5-Luc reporter gene assays, the cells were plated at 10,000 cells/well in 96-well plates with growth medium containing 10% fetal calf serum and incubated overnight at 37° C. and 5% CO2. Each compound was dissolved in DMSO as a 10 mM stock in standard j-vials and used to prepare compound source plates in dose-response format with 3-fold serial dilutions and a 10 mM top concentration. Compound transfer from serially diluted source plates to assay plates containing the cells was accomplished using a pintool (Multimek 96, Beckman equipped with V&P Scientific FP1S50H pins) based liquid handling protocol. This protocol used a slotted pin to transfer 50 nl of compound from a source plate well to an assay plate well containing 50 μl of cells in growth medium. […] Control wells received 50 nl of DMSO treatment for normalization and calculating IC50 values. The treated cells were incubated at 37° C. and 5% CO2 for an additional forty-two hours. Following incubation, the growth medium was removed and 50 μl of BrightGlo luminescence reagent (Promega) was added to each well of the 96-well assay plates. The plates were placed on an orbital shaker for 5 min and then luminescence was quantified on the Victor3 (Perkin Elmer) plate reader. Readings were normalized to DMSO only treated cells, and normalized activities were utilized for IC50 calculations using the dose-response log (inhibitor) vs. response-variable slope (four parameters) nonlinear regression feature available in GraphPad Prism 5.0 or 6.0.
In general terms: In a reporter assay the amount or activity of a reporter protein is the signal.

A further test relates to LL29 cells. Kind of test: Inhibition of the fibrotic process (αSMA staining) in TGF-β1 treated primary human fibroblasts from IPF patients. The format is cell-based. The note with it: Fibroblast, 96 h, TGF-β1 20 ng/mL, 4 days, dose-response 10 μM to 1.87 nM, read-out: Inhibition of fibrosis EC50. From the text: The above synthesized compounds were screened using primary human fibroblasts (derived from IPF patients) treated with TGF-β1 to determine their ability to inhibit the fibrotic process.
Primary human fibroblasts derived from IPF patients (LL29 cells) [^1Xiaoqiu Liu, et. al., “Fibrotic Lung Fibroblasts Show Blunted Inhibition by cAMP Due to Deficient cAMP Response Element-Binding Protein Phosphorylation”, Journal of Pharmacology and Experimental Therapeutics (2005), 315(2), 678-687; ^2Watts, K. L., et. al., “RhoA signaling modulates cyclin D1 expression in human lung fibroblasts; implications for idiopathic pulmonary fibrosis”, Respiratory Research (2006), 7(1), 88] were obtained from American Type Culture Collection (ATCC) and expanded in F12 medium supplemented with 15% Fetal Bovine Serum and Penicillin/Streptomycin.
Each compound was dissolved in DMSO as a 10 mM stock and used to prepare compound source plates. Serial dilution (1:2, 11-point dose-response curves from 10 μM to 1.87 nM) and compound transfer was performed using the ECHO 550 (Labcyte, Sunnyvale, Calif.) into 384-well clear bottom assay plates (Greiner Bio-One) with appropriate DMSO backfill for a final DMSO concentration of 0.1%. LL29 cells were plated at 1,500 cells/well in 80 μl/well F12 medium supplemented with 1% Fetal Bovine Serum. One hour after addition of the cells, TGF-β1 (Peprotech; 20 ng/mL) was added to the plates to induce fibrosis (ref. 1 and 2 above). Wells treated with TGF-β1 and containing DMSO were used as controls. Cells were incubated at 37° C. and 5% CO2 for 4 days. Following incubation for 4 days, SYTOX green nucleic acid stain (Life Technologies [Thermo Fisher Scientific]) was added to the wells at a final concentration of 1 uM and incubated at room temperature for 30 min. Cells were then fixed using 4% formaldehyde (Electron Microscopy Sciences), washed 3 times with PBS followed by blocking and permeabilization using 3% Bovine Serum Albumin (BSA; Sigma) and 0.3% Triton X-100 (Sigma) in PBS. Cells were then stained with antibody specific to α-smooth muscle actin (αSMA; Abcam) (ref. 1 and 2 above) in 3% Bovine Serum Albumin (BSA; Sigma) and 0.3% Triton X-100 (Sigma) in PBS, and incubated overnight at 4° C. Cells were then washed 3 times with PBS, followed by incubation with Alexa Flor-647 conjugated secondary antibody (Life Technologies [Thermo Fisher Scientific]) and DAPI at room temperature for 1 hour. Cells were then washed 3 times with PBS and plates were sealed for imaging. αSMA staining was imaged by excitation at 630 nm and emission at 665 nm and quantified using the Compartmental Analysis program on the CellInsight CX5 (Thermo Scientific). Dead or apoptotic cells were excluded from analysis based on positive SYTOX green staining. % of total cells positive for αSMA were counted in each well and normalized to the average of 11 wells treated with TGF-31 on the same plate using Dotmatics' Studies Software. The normalized averages (fold change over untreated) of 3 replicate wells for each compound concentration were used to create dose-responses curves and EC50 values were calculated using non-linear regression curve fit in the Dotmatics' Studies Software. The EC50 values are reported.

A value given as a limit tells only on which side of the number the result lay.

As a reminder, the IC50 is the concentration needed to halve the response being measured. The low end stands for inhibition by little substance, the high end for a need for much substance. Usually EC50 stands for the concentration that produces a half-maximal response. The compound `CN(C)c1cncc(-c2cc3c(-c4nc5c(-c6cccc(F)c6)nccc5[nH]4)n[nH]c3cn2)c1` [Compound 7, 5-(3-(4-(3-Fluorophenyl)-1H-imidazo[4,5-c]pyridin-2-yl)-1H-pyrazolo[3,4-c]pyridin-5-yl)-N,N-dimethylpyridin-3-amine] registered an IC50 in test [1] of 11.4 nM. In addition, the EC50 in the test with LL29 cells is not above 9 nM.
`CN(C)Cc1cncc(-c2cc3c(-c4nc5c(-c6cccc(F)c6)nccc5[nH]4)n[nH]c3cn2)c1` [Compound 13, 1-(5-(3-(4-(3-Fluorophenyl)-1H-imidazo[4,5-c]pyridin-2-yl)-1H-pyrazolo[3,4-c]pyridin-5-yl)pyridin-3-yl)-N,N-dimethylmethanamine] returned an IC50 in test [1] of 157 nM. The EC50 in the test with LL29 cells stood at 1660 nM.
On the same counts, the results for `O=C(Nc1cncc(-c2cc3c(-c4nc5c(-c6cccc(F)c6)nccc5[nH]4)n[nH]c3cn2)c1)C1CC1` [Compound 19, N-(5-(3-(4-(3-Fluorophenyl)-1H-imidazo[4,5-c]pyridin-2-yl)-1H-pyrazolo[3,4-c]pyridin-5-yl)pyridin-3-yl)cyclopropanecarboxamide] are 25.6 nM and not above 9 nM.
On the same counts, the results for `Fc1cccc(-c2nccc3[nH]c(-c4n[nH]c5cnc(-c6cncc(CN7CCC(F)(F)C7)c6)cc45)nc23)c1` [Compound 25, 5-(5-((3,3-Difluoropyrrolidin-1-yl)methyl)pyridin-3-yl)-3-(4-(3-fluorophenyl)-1H-imidazo[4,5-c]pyridin-2-yl)-1H-pyrazolo[3,4-c]pyridine] are 30.8 nM and 185 nM.
Take `CC(C)CC(=O)Nc1cncc(-c2cc3c(-c4nc5c(-c6ccc(F)cc6)nccc5[nH]4)n[nH]c3cn2)c1` [Compound 28, N-(5-(3-(4-(4-Fluorophenyl)-1H-imidazo[4,5-c]pyridin-2-yl)-1H-pyrazolo[3,4-c]pyridin-5-yl)pyridin-3-yl)-3-methylbutanamide]: in test [1], the IC50 came to 174 nM. The concentration for a half-maximal effect (EC50) with LL29 cells was found to be 553 nM.
On the same counts, the results for `CC(C)(C)C(=O)Nc1cncc(-c2cc3c(-c4nc5c(-c6ccc(F)cc6)nccc5[nH]4)n[nH]c3cn2)c1` [Compound 34, N-(5-(3-(4-(4-Fluorophenyl)-1H-imidazo[4,5-c]pyridin-2-yl)-1H-pyrazolo[3,4-c]pyridin-5-yl)pyridin-3-yl)pivalamide] are 50.9 nM and 515 nM.
In the same order, the values of `Fc1ccc(-c2nccc3[nH]c(-c4n[nH]c5cnc(-c6cncc(CN7CCCC7)c6)cc45)nc23)cc1` [Compound 40, 3-(4-(4-Fluorophenyl)-1H-imidazo[4,5-c]pyridin-2-yl)-5-(5-(pyrrolidin-1-ylmethyl)pyridin-3-yl)-1H-pyrazolo[3,4-c]pyridine] are more than 10000 nM and not below 9990 nM.
On the same counts, the results for `O=C(Nc1cncc(-c2cc3c(-c4nc5c(-c6ccc(F)cc6)nccc5[nH]4)n[nH]c3cn2)c1)C1CCC1` [Compound 46, N-(5-(3-(4-(4-Fluorophenyl)-1H-imidazo[4,5-c]pyridin-2-yl)-1H-pyrazolo[3,4-c]pyridin-5-yl)pyridin-3-yl)cyclobutanecarboxamide] are 61 nM and not above 9 nM.
In test [1], `Fc1ccc(-c2nccc3[nH]c(-c4n[nH]c5cnc(-c6cncnc6)cc45)nc23)cc1` [Compound 52, 3-(4-(4-Fluorophenyl)-1H-imidazo[4,5-c]pyridin-2-yl)-5-(pyrimidin-5-yl)-1H-pyrazolo[3,4-c]pyridine] had an IC50 of 74.1 nM. The EC50 in the test on LL29 cells turned out to be 44 nM.
On the same counts, the results for `CC(C)(C)C(=O)Nc1cncc(-c2cc3c(-c4nc5c(-c6ccccc6F)nccc5[nH]4)n[nH]c3cn2)c1` [Compound 60, N-(5-(3-(4-(2-Fluorophenyl)-1H-imidazo[4,5-c]pyridin-2-yl)-1H-pyrazolo[3,4-c]pyridin-5-yl)pyridin-3-yl)pivalamide] are 115 nM and 878 nM.
On the same counts, the results for `CC(C)C(=O)Nc1cncc(-c2cc3c(-c4nc5c(-c6ccccc6F)nccc5[nH]4)n[nH]c3cn2)c1` [Compound 61, N-(5-(3-(4-(2-Fluorophenyl)-1H-imidazo[4,5-c]pyridin-2-yl)-1H-pyrazolo[3,4-c]pyridin-5-yl)pyridin-3-yl)isobutyramide] are 192 nM and 153 nM.
In the same order, the values of `O=C(Nc1cncc(-c2cc3c(-c4nc5c(-c6ccccc6F)nccc5[nH]4)n[nH]c3cn2)c1)C1CCCC1` [Compound 73, N-(5-(3-(4-(2-Fluorophenyl)-1H-imidazo[4,5-c]pyridin-2-yl)-1H-pyrazolo[3,4-c]pyridin-5-yl)pyridin-3-yl)cyclopentanecarboxamide] are 264 nM and 534 nM.
In test [1], `CC(C)C(=O)Nc1cncc(-c2cc3c(-c4nc5c(-c6cccnc6)nccc5[nH]4)n[nH]c3cn2)c1` [Compound 87, N-(5-(3-(4-(Pyridin-3-yl)-1H-imidazo[4,5-c]pyridin-2-yl)-1H-pyrazolo[3,4-c]pyridin-5-yl)pyridin-3-yl)isobutyramide] gave a half-maximal inhibitory concentration (IC50) of more than 10000 nM. For the same compound, in the test with LL29 cells, the EC50 was not below 9990 nM.
In the same order, the values of `CC(C)Nc1cncc(-c2cc3c(-c4nc5c(-c6cccnc6)nccc5[nH]4)n[nH]c3cn2)c1` [Compound 90, N-Isopropyl-5-(3-(4-(pyridin-3-yl)-1H-imidazo[4,5-c]pyridin-2-yl)-1H-pyrazolo[3,4-c]pyridin-5-yl)pyridin-3-amine] are 11.2 nM and not above 9 nM.
In the same order, the values of `Cc1ccncc1-c1cc2c(-c3nc4c(-c5ccncc5)nccc4[nH]3)n[nH]c2cn1` [Compound 109, 5-(4-Methylpyridin-3-yl)-3-(4-(pyridin-4-yl)-1H-imidazo[4,5-c]pyridin-2-yl)-1H-pyrazolo[3,4-c]pyridine] are 114 nM and not below 9990 nM.
On the same counts, the results for `CCCC(=O)Nc1cncc(-c2cc3c(-c4nc5c(-c6ccncc6)nccc5[nH]4)n[nH]c3cn2)c1` [Compound 121, N-(5-(3-(4-(Pyridin-4-yl)-1H-imidazo[4,5-c]pyridin-2-yl)-1H-pyrazolo[3,4-c]pyridin-5-yl)pyridin-3-yl)butyramide] are more than 10000 nM and not below 9990 nM.
In turn, `CC(C)CC(=O)Nc1cncc(-c2cc3c(-c4nc5c(-c6ccccn6)nccc5[nH]4)n[nH]c3cn2)c1` [Compound 132, 3-Methyl-N-(5-(3-(4-(pyridin-2-yl)-1H-imidazo[4,5-c]pyridin-2-yl)-1H-pyrazolo[3,4-c]pyridin-5-yl)pyridin-3-yl)butanamide] came in with an IC50 in test [1] of 198 nM. Besides, the EC50 in the test on LL29 cells is 685 nM.
